Experimental data as given in patent publication US4179467A, “Dopamine hydroxylase inhibiting 2-amino-cyclopent-1-ene-1-thiocarboxylic acid-disulfides” (Richter Gedeon Vegyeszeti Gyar Rt., priority 1976, dated 1979).
Like-named read-outs stand apart in the source and are kept apart here.

Columns and labels:
dopamine-β-hydroxylase [1] = experiment: Noradrenaline level of spleen in rats, % of controls; format: in vivo, male Wistar rats; details: rat, i.p., 4 hours
Method: (§1) The dopamine-β-hydroxylase inhibiting effects of the new compounds according to the invention were examined by the following tests:
The tests were performed on male Wistar rats weighing 150 to 200 g. The dopamine-β-hydroxylase inhibiting effects of the compounds were evaluated by determining the change of noradrenaline, dopamine and adrenaline levels of the cerebrum, heart, spleen and adrenal gland. The serotonine and 5-hydroxy-indolylacetic acid levels of the cerebrum were also determined. The measurements were performed as follows: […]
The organs were weighed in the frozen state and then homogenized in 5.0 ml of 0.4 N perchloric acid containing 0.05% of EDTA-Naa and 0.1% of Na2 S2 O5. […] Noradrenaline was determined according to the method of Shellenberger et al. (Anal. Biochem. 39, 356 (1971)), with the following modifications of the basic procedure: 0.5 ml of 0.1 molar Na-K-phosphate buffer, containing 9 g/l of EDTA-Na2, were added to 0.5 ml of the eluate, and the catecholamines (noradrenaline in the examination of heart and spleen and noradrenaline and dopamine in the examination of the cerebrum) were oxidized with 0.1 ml of a 0.1 N iodine solution in 5% potassium iodide. […] The fluorescency of noradrenaline was measured with an OPTON spectrophotometer at wavelengths of 380 nm (excitation) and 490 nm (emission). […]

dopamine-β-hydroxylase [2] = details: in vitro conditions, literature; cited from earlier work
dopamine-β-hydroxylase [3] = experiment: Adrenaline level of adrenal gland in rats, % of controls; format: in vivo, male Wistar rats; details: rat, 4 hours
Method: as §1
(§2) The tests were performed on male Wistar rats weighing 150 to 200 g. The dopamine-β-hydroxylase inhibiting effects of the compounds were evaluated by determining the change of noradrenaline, dopamine and adrenaline levels of the cerebrum, heart, spleen and adrenal gland. The serotonine and 5-hydroxy-indolylacetic acid levels of the cerebrum were also determined. The measurements were performed as follows:
(§3) The animals were decapitated, the cerebrum, heart, spleen and adrenal gland were removed quickly, and the organs were frozen by placing them on a metal sheet cooled with dry ice. The frozen organs were stored for a maximum of one night at -20° C.
The adrenal glands were freed from fat and homogenized in 3.0 ml of ice-cold 0.4 N perchloric acid. The homogenized mixtures were centrifuged for 10 minutes at 0° C. with a speed of 3200 r.p.m. using a Janetzky K-70 type centrifuge. 0.05 ml samples were taken from the supernatant, and the adrenaline level was determined directly by the method of Laverty et al. (Anal. Biochem. 22, 269 (1968)).
(§4) In the tests disulfiram, 2,2-dipyridyl, bis(1-methyl-4-homopiperazinyl-thiocarbonyl)-disulfide, sodium diethyldithiocarbamate and N-phenyl-N'-(2-thiazolyl)-thiourea were used as reference substances. The values indicated in Table 1 are the percentages in relation to the amine levels of the controls measured in the same tests (±standard error). The statistical calculations were performed on a TPA/i type computer, using Student's t test.

dopamine-β-hydroxylase [4] = experiment: Noradrenaline and dopamine levels of the cerebrum (brain) in rats, % of controls; format: in vivo, male Wistar rats; details: rat, 4 hours
Method: as §1, §2, §3
(§5) The organs were weighed in the frozen state and then homogenized in 5.0 ml of 0.4 N perchloric acid containing 0.05% of EDTA-Naa and 0.1% of Na2 S2 O5. The homogenized mixtures were centrifuged as described above for the treatment of adrenal gland, the supernatants were decanted, and the pH was adjusted to 8.0±0.1 with a 0.1 molar tris buffer containing 20 g/l of NaOH and 25 g/l of EDTA-Na2. 100 mg of prepared Al2 O3 (Anton et al.: J. Pharm. Ther. 138, 360 (1962)) were added to the samples, and the mixtures were shaken mechanically for 20 minutes. Thereafter the Al2 O3 was washed with 2×10 ml of distilled water, and noradrenaline was eluted with 1.0 ml of 0.05 N perchloric acid. 0.5 ml samples of the eluate were used for the determination of noradrenaline. Noradrenaline was determined according to the method of Shellenberger et al. (Anal. Biochem. 39, 356 (1971)), with the following modifications of the basic procedure: 0.5 ml of 0.1 molar Na-K-phosphate buffer, containing 9 g/l of EDTA-Na2, were added to 0.5 ml of the eluate, and the catecholamines (noradrenaline in the examination of heart and spleen and noradrenaline and dopamine in the examination of the cerebrum) were oxidized with 0.1 ml of a 0.1 N iodine solution in 5% potassium iodide. After exactly 2 minutes, oxidation was stopped by adding 0.25 ml of a 2.5% sodium sulfite solution in 4.4 N aqueous sodium hydroxide to the mixture. 2 minutes after the introduction of the alkaline sulfite solution, 0.2 ml of concentrated acetic acid was added to the samples, whereupon the pH decreased to 4.4 to 4.5. Thereafter the samples were placed for 5 minutes in a drying oven heated to 100° C., and then the samples were cooled with ice water. The fluorescency of noradrenaline was measured with an OPTON spectrophotometer at wavelengths of 380 nm (excitation) and 490 nm (emission).
The brains were homogenized in 10 parts by volume of 0.4 N perchloric acid. The homogenized mixture was stored at -20° C. overnight; thereafter it was thawed and centrifuged as described above. A sample of the homogenized mixture corresponding to 0.5 g of brain was removed, the pH of the sample was adjusted to 8.0±0.1 with 0.1 molar tris-buffer of the above composition, and the sample was processed as described above for the determination of the noradrenaline content of heart and spleen, with the difference that 1.5 ml of 0.05 N perchloric acid was used as the eluting agent. 0.5 ml of the eluate was used to determine the noradrenaline and dopamine contents. The measurement was performed as described above, with the difference that samples of 0.5 ml were applied for the recording of the flourescence of noradrenaline. The residue was placed for 50 minutes into a drying oven heated to 100° C., thereafter the sample was cooled with ice water, and the fluorescence of dopamine was recorded at wavelengths of 325 nm (excitation) and 380 nm (emission).
In a further test series the serotonine and 5-hydroxy-indolylacetic acid contents were also determined, in addition to the determination of the noradrenaline and dopamine content, from the same sample. […]

[5] = test system: serotonine and 5-hydroxy-indolylacetic acid levels of the cerebrum; experiment: Serotonine and 5-hydroxy-indolylacetic acid levels of the cerebrum (brain) in rats, % of controls; format: in vivo, male Wistar rats; details: for response vs control in vivo at 500 mg/kg: po, p.o.
Method: as §2, §3
In a further test series the serotonine and 5-hydroxy-indolylacetic acid contents were also determined, in addition to the determination of the noradrenaline and dopamine content, from the same sample. In this instance the brains were homogenized in 10 ml of 75% ethanol, 0.2 ml of EDTA-Na2 and 5% of ascorbic acid were added to the homogenized mixtures, and the homogenized mixtures were maintained at -20° C. overnight. The mixtures were centrifuged as described above, and 5.0 ml samples of the supernatant were removed. The samples were diluted with equal volumes of distilled water, and poured onto ion exchange columns of 0.5×1.5 cm dimensions, filled with buffered Amberlite CG-30 (200 to 400 mesh). The columns were washed with 5 ml of distilled water followed by 1.0 ml of 0.2 N hydrochloric acid, and the first effluent and the aqueous wash were collected for the determination of 5-hydroxy-indolylacetic acid. Elution was continued with a further 1.2 ml quantity of 0.2 N hydrochloric acid in order to remove noradrenaline, dopamine and serotonine. Samples of 0.3 ml were used for the determinations.
Noradrenaline and dopamine were determined by the method of Shellenberger, modified as described above, whereas serotonine was determined by the method of Curzon et al. (Brit. J. Pharmacol. 39, 653 (1970)). The basic method was modified as follows: A 0.5% solution of ortho-phthal(di)aldehyde in absolute ethanol was diluted with […] hydrochloric acid to 50-fold of its original volume, and 0.6 ml of the resulting 0.01% ortho-phthal(di)aldehyde solution were added immediately to 0.5 ml of the serotonine-containing sample. The sample was placed in a hot water bath for 10 minutes, thereafter cooled with tap water, and the flourescence was recorded at wavelengths of 360 nm (excitation) and 490 nm (emission).
5-Hydroxy-indolylacetic acid was determined from the mixture of the first effluent and the aqueous wash. 10 ml of distilled water and 0.2 ml of concentrated hydrochloric acid were added to the mixture, and the sample was poured onto a 0.8×4.0 cm column filled with Sephadex G-10. The column was washed with 15 ml of 0.1 N hydrochloric acid followed by 1.8 to 2.0 ml of 0.02 N aqueous ammonia, and then 5-hydroxy-indolylacetic acid was eluted with further 2.0 ml of the aqueous ammonia. 0.5 ml samples were used in the measurements, and the determination was performed according to the method of Korf et al. (Biochem. Pharmacol. 20, 659 (1971)).
as §4

in vivo = details: mouse, in vivo, mice
dopamine-β-hydroxylase [6] = experiment: Noradrenaline level of heart in rats, % of controls; format: in vivo, male Wistar rats; details: rat, 4 hours
Method: as §1, §2, §3, §5, §4

mice = experiment: in vivo

## c1ccc(-c2ccccn2)nc1 [2,2-D, 2,2-dipyridyl]
dopamine-β-hydroxylase [1]; 37.5 mg/kg
  Spleen NA level (percentages in relation to the controls): 100%
dopamine-β-hydroxylase [2]
  dopamine-β-hydroxylase inhibition in vitro, in words: effective under in vitro conditions
dopamine-β-hydroxylase [3]; i.p., 37.5 mg/kg
  Adrenal gland adrenaline level (% of controls): 80%
dopamine-β-hydroxylase [3]; i.p., 75 mg/kg
  Adrenal gland adrenaline level (% of controls): 63%
dopamine-β-hydroxylase [4]; i.p., 37.5 mg/kg
  Brain DA level (percentages in relation to the controls): 116%
  Brain NA level (percentages in relation to the controls): 79.5%
dopamine-β-hydroxylase [4]; i.p., 75 mg/kg
  Brain DA level (percentages in relation to the controls): 95%
  Brain NA level (percentages in relation to the controls): 41.2%
[5]; Rattus norvegicus, ip, 4 h, read-out: Brain SE level (percentages in relation to the controls)
  response vs control in vivo at 75 mg/kg: 100%
In vivo; ip
  LD50: 280 mg/kg
dopamine-β-hydroxylase [6]; i.p., 37.5 mg/kg
  Heart NA level (percentages in relation to the controls): 104%
dopamine-β-hydroxylase [6]; i.p., 75 mg/kg
  Heart NA level (percentages in relation to the controls): 58%

## CCCCNC1=C(C([O-])=S)CCC1.CCCCNC1=C(C([O-])=S)CCC1.[Zn+2] [M-3, 2-(N-butyl)-amino-cyclopent-1-ene-thiocarboxylic acid (zinc salt)]
dopamine-β-hydroxylase [3]; i.p., 50 mg/kg
  Adrenal gland adrenaline level (% of controls): 66.3%
dopamine-β-hydroxylase [3]; i.p., 100 mg/kg
  Adrenal gland adrenaline level (% of controls): 60.5 ± 3.6%
dopamine-β-hydroxylase [3]; p.o., 500 mg/kg
  Adrenal gland adrenaline level (% of controls): 100.3 ±8.3%
dopamine-β-hydroxylase [4]; i.p., 50 mg/kg
  Brain DA level (percentages in relation to the controls): 112.2 ± 12.0%
  Brain NA level (percentages in relation to the controls): 85.0 ±9.1%
dopamine-β-hydroxylase [4]; i.p., 100 mg/kg
  Brain DA level (percentages in relation to the controls): 121.3 ± 6.1%
  Brain NA level (percentages in relation to the controls): 73.5 ± 3.2%
dopamine-β-hydroxylase [4]; p.o., 500 mg/kg
  Brain DA level (percentages in relation to the controls): 99.2 ±5.0%
  Brain NA level (percentages in relation to the controls): 98.9 ±2.5%
mice; i.p.
  LD50: ~ 450 mg/kg
dopamine-β-hydroxylase [6]; i.p., 50 mg/kg
  Heart NA level (percentages in relation to the controls): 84.5±4.1%
dopamine-β-hydroxylase [6]; i.p., 100 mg/kg
  Heart NA level (percentages in relation to the controls): 91.5 ± 8.1%
dopamine-β-hydroxylase [6]; p.o., 500 mg/kg
  Heart NA level (percentages in relation to the controls): 108.8 ±3.2%

## COCCNC1=C(C(=S)SSC(=S)C2=C(NCCOC)CCC2)CCC1 [M-4, 2-(N-methoxyethyl)-amino-cyclopent-1-ene-thiocarboxylic acid disulfide]
[5]; ip, rat, i.p., 4 hours, read-out: Brain 5-HIAA level (percentages in relation to the controls)
  response vs control in vivo at 100 mg/kg: 108 ± 9.6%
[5]; ip, rat, i.p., 4 hours, read-out: Brain SE level (percentages in relation to the controls)
  response vs control in vivo at 100 mg/kg: 113 ± 2.8%
[5]; ip, rat, i.p., 200 mg/kg, 4 hours, read-out: Brain 5-HIAA level (percentages in relation to the controls)
  response vs control in vivo at 200 mg/kg: 151%
[5]; ip, rat, i.p., 200 mg/kg, 4 hours, read-out: Brain SE level (percentages in relation to the controls)
  response vs control in vivo at 200 mg/kg: 113 ± 5.6%
[5]; ip, rat, i.p., 200 mg/kg, 8 hours, read-out: Brain 5-HIAA level (percentages in relation to the controls)
  response vs control in vivo at 200 mg/kg: 161%
[5]; ip, rat, i.p., 200 mg/kg, 8 hours, read-out: Brain SE level (percentages in relation to the controls)
  response vs control in vivo at 200 mg/kg: 106 ± 7.5%
[5]; rat, 4 hours, read-out: Brain 5-HIAA level (percentages in relation to the controls)
  response vs control in vivo at 500 mg/kg: 95.4 ± 6%
[5]; rat, 4 hours, read-out: Brain SE level (percentages in relation to the controls)
  response vs control in vivo at 500 mg/kg: 103 ± 5.3%
[5]; rat, 8 hours, read-out: Brain 5-HIAA level (percentages in relation to the controls)
  response vs control in vivo at 500 mg/kg: 106 ± 4.9%
[5]; rat, 8 hours, read-out: Brain SE level (percentages in relation to the controls)
  response vs control in vivo at 500 mg/kg: 90.9 ± 6.7%
In vivo; ip
  LD50: > 1500 mg/kg
dopamine-β-hydroxylase [6]; p.o., 500 mg/kg
  Heart NA level (percentages in relation to the controls): 86.4 ± 10.1%

## S=C(Nc1ccccc1)Nc1nccs1 [U-14624, N-phenyl-N'-(2-thiazolyl)-thiourea]
dopamine-β-hydroxylase [1]; 200 mg/kg
  Spleen NA level (percentages in relation to the controls): 111%
dopamine-β-hydroxylase [3]; i.p., 200 mg/kg
  Adrenal gland adrenaline level (% of controls): 72%
dopamine-β-hydroxylase [4]; i.p., 200 mg/kg
  Brain DA level (percentages in relation to the controls): 121%
  Brain NA level (percentages in relation to the controls): 31.6%
[5]; rat, i.p., 200 mg/kg, 4 hours
  Brain 5-HIAA level (percentages in relation to the controls): 175%
  Brain SE level (percentages in relation to the controls): 137%
In vivo; ip
  LD50: ~680 mg/kg
In vivo; po
  LD50: > 1000 mg/kg
dopamine-β-hydroxylase [6]; i.p., 200 mg/kg
  Heart NA level (percentages in relation to the controls): 106%

## Chlorofusaric acid
mice; p.o.
  LD50: 470 ± 85 mg/kg
